Experiments:
[1] = Pharmacokinetic correlation of fingertip sweat and capillary blood L-Dopa profiles; format: in vivo, human; conditions: healthy subjects, after L-Dopa/C-Dopa pill, measured every 10 min
From the text: While the blood plasma is the ‘gold standard’ matrix for therapeutic monitoring of L-Dopa, this analysis method relies on LC-MS centralized instruments. To further confirm the reliability of the developed protocol based on touch-based sweat L-Dopa detection, the feasibility of data validation between sweat and blood samples is investigated. Two subjects performed fingertip sweat sensing in parallel to the electrochemical measurements of the finger pricked capillary blood samples, using the enzymatic L-Dopa sensor. As shown in FIG. 62 (A)-(B), the sweat sensor is able to probe and detect successfully L-Dopa fluctuations in microliter blood samples similar to the fingertip natural sweat sample. Similar temporal profiles are observed for blood and sweat experiments, with ˜10 min lag time. […] Additionally, control experiments are also carried out without pill intake (FIG. 62 (C)) and using non-enzymatic electrode (FIG. 62 (D)). In both control experiments, the current signal remained small and unchanged, which indicates the signal specificity of the fingertip touch-based sweat sensing procedure.

[2] = Touch-based fingertip sweat L-Dopa monitoring after L-Dopa/C-Dopa pill intake; format: in vivo, human; conditions: oral L-Dopa/C-Dopa (100:25 mg) pill
From the text: The disclosed technology can be implemented in some embodiments to provide an individualized therapeutic drug monitoring for PD patients, centered on dynamic non-invasive tracking pharmacokinetic profiles of L-Dopa levels in the secreted sweat upon intake of standard pill formulations. Sweat is a non-invasively retrievable biofluid containing rich information of trace-level, health-related biochemical markers. Wearable sweat sensors have shown enormous potential toward monitoring of physiological heath status (e.g., hydration), disease diagnosis and management (e.g., diabetes and gout), and therapeutic drug monitoring (e.g., pain management). However, the presence of skin as a mechanical barrier prevents an uninterrupted access to this information-rich biofluid, and thus a triggering system (i.e., physical exercise, thermal stimulation, oriontophoresis) is necessary to provide continuous access to sweat sample. […] Taking advantage of the high density of eccrine sweat glands (˜400 glands cm^2) and the consequent generation of high sweat rates, finger touch-based biosensors have recently been reported for the detection of key sweat biomarkers (e.g., glucose, vitamin C, and cortisol). Leveraging such natural thermoregulatory sweat sample, a finger-touch L-Dopa biosensor based on some embodiments of the disclosed technology can continuously monitor the dynamic profile of sweat L-Dopa upon intake of standard anti-Parkinsonian medication including L-Dopa-carbidopa (100:25 mg) (FIG. 5A(a)). […]
To gain further insight into the personalized body responses upon medication intake, the performance of the finger touch biosensor is evaluated on three different individuals while taking the same medication under identically kept conditions (FIG. 7 (a)-(c)). […]

tyrosinase enzyme = assay: Selectivity of tyrosinase-modified L-Dopa sensor against C-Dopa; format: biochemical
From the text: L-Dopa detection is achieved through coupling the tyrosinase enzyme-catalyzed L-Dopa oxidation (catecholase activity) and the subsequent electrochemical reduction of the corresponding quinone product, dopaquinone, at low potentials (FIG. 6A). The formed reaction cycle not only enhances the sensitivity through amplification of the resulting current signal but also prevents electrode fouling by inhibiting the spontaneous polymerization reactions of the unstable quinone molecules. Tyrosinase enzyme is simply immobilized on the surface of screen-printed carbon electrodes, followed by crosslinking with glutaraldehyde to prevent leaching of the enzyme (FIG. 6A). To establish the optimal potential for the L-Dopaquinone reduction, the amperometric signals obtained at various potentials, ranging from −0.1 to −0.4 V (vs. internal pseudo-reference Ag/AgCl), are compared upon addition of 10 μM L-Dopa. […] Thus, optimal potential of −0.3 V is chosen and used for subsequent in-vitro and on-body experiments. […] The reproducibility of the L-Dopa sensor is evaluated by measuring 10 μM L-Dopa concentration on six different electrodes sensors.
The performance of the sensor toward following the L-Dopa pharmacokinetics is characterized on healthy patients following the administration of L-Dopa/C-Dopa (100:25 mg) pills which are common oral medication for PD patients. […]

| Compound | lag time between sweat and capillary blood L-Dopa temporal profiles [1] [min] | time at which L-Dopa current signal starts to increase after pill intake ([2]; healthy subject) [min] | time at which sweat L-Dopa signal decreases back to background level after pill intake ([2]; healthy subject) | time of peak maximum of sweat L-Dopa signal after pill intake ([2]; healthy subjects, measured every 10 min) [min] | current relative to L-Dopa (tyrosinase enzyme; a quarter of the L-Dopa concentration (4:1 ratio as in the pill)) [%] | overall response relative to L-Dopa (tyrosinase enzyme; same concentration as L-Dopa, amperometry at -0.3 V) [%] |
| --- | --- | --- | --- | --- | --- | --- |
| N[C@@H](Cc1ccc(O)c(O)c1)C(=O)O [L-Dopa, Levodopa] | ~10 | 10 | one hour | 30 | – | – |
| C[C@@](Cc1ccc(O)c(O)c1)(NN)C(=O)O [C-Dopa, carbidopa] | – | – | – | – | ~6 | ~20 |
